Series [1] in a line: Hepatotoxicity in Beagle dog assessed as increase in alanine aminotransferase level at 50 mg/kg/day, po administered for 2 weeks. The settings on record: in vivo, 336 h. In kind it is toxicity, organism-based, Canis lupus familiaris.
Series [2] can be described thus: Hepatotoxicity in po dosed Beagle dog assessed as induction of inflammatory cell infiltration of centrilobular hepatocytes at highest dose administered for 2 weeks. It counts as toxicity, organism-based, Canis lupus familiaris. The note with it: in vivo, 336 h.
Another series has as its system Homo sapiens. The experiment in a line: In vivo inhibition of BACE1 in human assessed as reduction in amyloidbeta level at 30 mg administered once daily after 14 days MSD electrochemiluminescent immunoassay relative to control. It counts as functional.

This note sets out measurements from ChEMBL document CHEMBL4321815, “Discovery of an Extremely Potent Thiazine-Based β-Secretase Inhibitor with Reduced Cardiovascular and Liver Toxicity at a Low Projected Human Dose” (J Med Chem, 2019).

The structures appear in SMILES notation.

With `C[C@@]1(c2cc(NC(=O)c3ccc(C#N)cn3)ccc2F)C=CSC(N)=N1` [ATABECESTAT], the Activity entry in series [1] and in series [2] was “Toxic” throughout. The “inhibition (INH)” value with Homo sapiens was determined as 80%.
